The values that follow come from publication PMC8863796 (Communications Biology, 2022).

Molecules are shown by their SMILES.

Assay [1] addresses T1, SARS-CoV-2 RdRp complex (nsp12/nsp7/nsp8) (Severe acute respiratory syndrome coronavirus 2, UniProt P0DTD1).
T1 construct: made in house
The experiment in a line: Extension reactions of RNA template-loop-primers with nucleotide analogue triphosphates. The class given is biochemical. Conditions: single-base extension of RNA template-loop-primers. As to the method: In total, 10 µL of 10 µM RNA template-loop-primers (5′-[…]-3′ for RDV-TP extension; 5′-[…]-3′ for SOF-TP extension) in 1 × RdRp reaction buffer was annealed by heating to 75 °C for 3 min and cooling to room temperature. In all, 5 µL of 8 µM RdRp complex (nsp12/nsp7/nsp8)[11],[20] in 1× reaction buffer was added to the annealed RNA template-loop-primer solution and incubated for an additional 10 min at room temperature. Finally, 5 µL of a solution containing 0.2 mM RDV-TP or 2 mM SOF-TP in 1× reaction buffer was added, and incubation was carried out for 2 h at 30 °C. The final concentrations of reagents in the 20 µL extension reactions were 2 µM nsp12/nsp7/nsp8, 5 µM RNA template-loop-primer, 50 µM RDV-TP, and 500 µM SOF-TP. The 1× reaction buffer contains the following reagents: 10 mM Tris-HCl pH 8, 10 mM KCl, 2 mM MgCl2 and 1 mM β-mercaptoethanol. Desalting of the reaction mixture was performed with an Oligo Clean & Concentrator kit (Zymo Research) resulting in ~10 µL purified aqueous RNA solutions. 1 µL of each solution was subjected to MALDI-TOF MS (Bruker ultrafleXtreme) analysis. The remaining ~9 µL extended template-loop-primer solutions were used to test exonuclease activity.
The RNA template-loop primer (5′-[…]-3′) was annealed at 75 °C for 3 min and cooled to room temperature for 25 min in 1× ThermoPol buffer before adding the other ingredients. The final 20 µL mixture containing 5 µM of the RNA template-loop primer, 250 µM, 500 µM or 1 mM AT-9010, 2 mM MnCl2 and 0.2 unit Therminator II in 1× ThermoPol buffer was incubated in a thermal cycler using the following protocol (28 cycles of 45 °C for 30 s, 55 °C for 30 s, 65 °C for 30 s). Desalting of the reaction mixture was performed with an Oligo Clean & Concentrator kit (Zymo Research) resulting in ~10 µL purified aqueous RNA solutions. 1 µL of each solution was subjected to MALDI-TOF MS (Bruker ultrafleXtreme) analysis. The remaining ~9 µL extended template-loop-primer solutions were used to test exonuclease activity. […]

Assay [2] deals with SARS-CoV-2 exonuclease complex (nsp14/nsp10) (Severe acute respiratory syndrome coronavirus 2, UniProt P0DTD1). Also noted: method as in earlier work. Conditions: previously demonstrated; cited from earlier work.

Regarding `NC(=O)c1nc(F)cn([C@@H]2O[C@H](COP(=O)(O)OP(=O)(O)OP(=O)(O)O)[C@@H](O)[C@H]2O)c1=O` [Favipiravir-RTP, Favipiravir-ribofuranosyl-5’-triphosphate], in assay [1], the “incorporation into RNA (template base opposite)” value (“incorporation into RNA” for short) was “incorporated into RNA opposite C or U”. As to `O=c1nc(NO)ccn1[C@@H]1O[C@H](COP(=O)(O)OP(=O)(O)OP(=O)(O)O)[C@@H](O)[C@H]1O` [NHC-TP, N^4-hydroxycytidine-5’-triphosphate], the “incorporation into RNA” value in assay [1] is reported as “incorporated opposite A or G”. In the case of `C[C@@]1(F)[C@H](O)[C@@H](COP(=O)(O)OP(=O)(O)OP(=O)(O)O)O[C@H]1n1cnc2c(=O)[nH]c(N)nc21` [AT-9010, 2’-fluoro-2’-methyl guanosine-5’-triphosphate], the “incorporation into RNA” value in assay [1] is listed as “incorporated opposite C”.

In the case of `COC[C@H]1C[C@@H](c2nc(-c3ccc4c(c3)COc3cc5c(ccc6nc([C@@H]7CC[C@H](C)N7C(=O)[C@@H](NC(=O)OC)C(C)C)[nH]c65)cc3-4)c[nH]2)N(C(=O)[C@H](NC(=O)OC)c2ccccc2)C1` [Velpatasvir], in assay [2], the “inhibition of SARS-CoV-2 exonuclease” value is given as “can inhibit the SARS-CoV-2 exonuclease”.
